Earlier results in patent US7098239B2, “Dipeptidyl peptidase inhibitors for the treatment of diabetes” (Merck & Co., Inc, priority 2001, dated 2006).
Each block holds one compound with its values, some of them ahead of it.

What was measured:
[1] = system: cardiac allograft; settings: rats; survival doubled from day 7 to day 14
[2] = molecular target: T1, DP-IV (Homo sapiens, UniProt P27487)
T1 construct: GRF is rapidly degraded in plasma to GRF[3–44]

[3] = system: hematopoiesis; settings: mouse model of cyclophosphamide-induced neutropenia

T1 sequence (P27487 39-766 limits assumed): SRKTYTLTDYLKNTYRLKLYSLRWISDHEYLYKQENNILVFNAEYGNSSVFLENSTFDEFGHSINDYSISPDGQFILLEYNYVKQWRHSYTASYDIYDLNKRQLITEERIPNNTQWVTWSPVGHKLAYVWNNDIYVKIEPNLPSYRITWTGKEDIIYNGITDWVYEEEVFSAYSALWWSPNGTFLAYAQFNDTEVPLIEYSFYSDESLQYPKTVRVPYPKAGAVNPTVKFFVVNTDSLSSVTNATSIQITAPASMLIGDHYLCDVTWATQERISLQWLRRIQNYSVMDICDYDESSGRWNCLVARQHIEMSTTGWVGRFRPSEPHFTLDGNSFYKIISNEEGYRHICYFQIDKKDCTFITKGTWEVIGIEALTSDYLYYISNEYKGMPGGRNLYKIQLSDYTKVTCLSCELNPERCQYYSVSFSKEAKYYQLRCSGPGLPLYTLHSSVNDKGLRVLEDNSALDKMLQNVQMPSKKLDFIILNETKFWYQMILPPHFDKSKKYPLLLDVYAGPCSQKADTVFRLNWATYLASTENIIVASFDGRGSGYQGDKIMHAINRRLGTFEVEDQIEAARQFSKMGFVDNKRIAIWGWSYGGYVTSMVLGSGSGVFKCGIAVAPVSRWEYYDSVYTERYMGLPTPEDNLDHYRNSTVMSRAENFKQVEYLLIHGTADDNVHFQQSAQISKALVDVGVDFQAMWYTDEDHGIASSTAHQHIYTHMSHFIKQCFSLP

Compound: CC(C)N1CCC(c2ccccc2)(c2ccccc2)CC1 [Prodipine, Pro-Pro-diphenyl-phosphonate]
cardiac allograft survival [1]: 14 day

degradation of GRF in plasma to GRF[3-44] [2]: prevented
Compound: diprotin A

Compound: CC(C)[C@H](N)C(=O)N1CCC[C@H]1B(O)O [Val-Boro-Pro]
hematopoiesis [3]: stimulates hematopoiesis
